{"source": "patent US20030134842A1", "about": "“METHODS FOR THE TREATMENT OR PREVENTION OF INFLAMMATORY DISEASES CHARACTERIZED BY ABNORMAL CELL PROLIFERATION” (priority 1997, published 2003)", "key": {"[1]": {"system": "MM-RU human melanoma cells", "settings": "SCID mice inoculated with MM-RU human melanoma cells, daily administration; cited from earlier work"}, "red cell Gardos channel": {"molecular_target": "T1, red cell Gardos channel (Mus musculus, UniProt O89109)", "T1 construct": "host or cells: red cells of the SAD mouse, in vivo", "T1 sequence (O89109 whole entry)": "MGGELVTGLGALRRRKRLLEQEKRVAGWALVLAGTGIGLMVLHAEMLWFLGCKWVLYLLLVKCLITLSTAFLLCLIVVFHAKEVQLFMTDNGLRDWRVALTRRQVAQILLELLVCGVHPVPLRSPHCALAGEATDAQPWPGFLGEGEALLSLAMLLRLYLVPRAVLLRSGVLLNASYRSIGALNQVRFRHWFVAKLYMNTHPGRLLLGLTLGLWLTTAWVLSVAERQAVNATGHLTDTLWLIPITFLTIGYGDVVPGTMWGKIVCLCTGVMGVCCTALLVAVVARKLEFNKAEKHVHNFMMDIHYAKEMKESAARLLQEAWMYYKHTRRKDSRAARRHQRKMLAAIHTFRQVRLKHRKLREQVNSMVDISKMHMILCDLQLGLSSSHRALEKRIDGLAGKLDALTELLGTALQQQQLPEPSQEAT", "settings": "SAD mouse, oral administration; cited from earlier work"}, "Gardos channel": {"molecular_target": "T2, Gardos channel (Homo sapiens, UniProt O15554)", "T2 construct": "reduces erythrocyte dehydration in patients with sickle cell disease; host or cells: erythrocytes of sickle cell patients, in vivo", "T2 sequence (O15554 whole entry)": "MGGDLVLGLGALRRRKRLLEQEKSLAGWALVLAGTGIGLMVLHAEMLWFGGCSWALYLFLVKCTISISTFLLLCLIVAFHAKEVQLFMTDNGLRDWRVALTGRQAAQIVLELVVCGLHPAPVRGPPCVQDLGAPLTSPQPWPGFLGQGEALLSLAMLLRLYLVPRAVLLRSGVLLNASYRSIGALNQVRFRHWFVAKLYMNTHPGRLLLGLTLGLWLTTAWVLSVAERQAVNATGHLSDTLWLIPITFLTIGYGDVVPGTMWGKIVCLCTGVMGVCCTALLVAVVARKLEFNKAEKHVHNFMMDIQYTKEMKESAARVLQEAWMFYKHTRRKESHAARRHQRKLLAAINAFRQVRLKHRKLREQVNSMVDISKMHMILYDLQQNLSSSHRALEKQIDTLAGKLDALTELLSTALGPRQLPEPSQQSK", "settings": "patients with sickle cell disease, oral; cited from earlier work"}, "[2]": {"system": "NIH 3T3 mouse fibroblast cells", "assay": "Mitogenic assay (mitogen-induced cell proliferation)", "type": "cell-based", "settings": "10 µM compound, NIH 3T3 mouse fibroblast cells"}}, "data": [{"smiles": "Clc1ccccc1C(c1ccccc1)(c1ccccc1)n1ccnc1", "note": "[Clotrimazole]", "values": [{"measurement": "number of lung metastases", "setting": "[1]", "value": "significant reduction in the number of lung metastases observed"}, {"measurement": "red cell Gardos channel, K+ content, MCHC, cell density", "setting": "red cell Gardos channel", "value": "inhibition of the red cell Gardos channel, increased red cell K^+ content, a decreased mean cell hemoglobin concentration (MCHC) and decreased cell density"}, {"measurement": "Gardos channel inhibition and erythrocyte dehydration", "setting": "Gardos channel", "value": "induces inhibition of the Gardos channel and reduces erythrocyte dehydration"}, {"measurement": "Mitogenic Assay Inhibition", "setting": "[2]", "value": 93.0, "unit": "%"}]}]}
